{"source": "patent US9549918B2", "about": "“Stabilized tacrolimus composition” (priority 2008, dated 2017)"}
{"experiment": "Ability of stabilizing agents to dissolve in the melted PEG/Poloxamer vehicle", "assay_type": "physicochemical", "conditions": "0.5% w/w of substance mixed with PEG/Poloxamer at 80° C."}
{"compound": "Oc1cccc2cccnc12", "note": "[8-hydroxychinoline 0.005%, ½SO4, ½H2O, 8-hydroxychinoline]", "Physical state in vehicle": "Not dissolved"}
{"compound": "N.N.O=C(O)CC(O)(CC(=O)O)C(=O)O", "note": "[Citric acid, (NH4)2]", "Physical state in vehicle": "Not dissolved"}
{"compound": "N.N.N.O=C(O)CC(O)(CC(=O)O)C(=O)O", "note": "[Citric acid, (NH4)3]", "Physical state in vehicle": "Not dissolved"}
{"compound": "O=C(O)CC(O)(CC(=O)O)C(=O)O", "note": "[Citric acid, H2O]", "Physical state in vehicle": "Dissolved"}
{"compound": "O=C([O-])CC(O)(CC(=O)[O-])C(=O)[O-].[Na+].[Na+].[Na+]", "note": "[Citric acid, Na3]", "Physical state in vehicle": "Not dissolved"}
{"compound": "O=C([O-])CC(O)(CC(=O)O)C(=O)O.[Na+]", "note": "[Citric acid, Na]", "Physical state in vehicle": "Not dissolved"}
{"compound": "O=C(O)[C@H]1OC(O)[C@H](O)[C@@H](O)[C@@H]1O", "note": "(stereo partly drawn) [D-Glucoronic acid]", "Physical state in vehicle": "Not dissolved"}
{"compound": "O=C([O-])CN(CCN(CC(=O)[O-])CC(=O)[O-])CC(=O)[O-].[Ca+2].[Na+].[Na+]", "note": "[EDTA, Ca, Na2]", "Physical state in vehicle": "Not dissolved"}
{"compound": "O=C([O-])CN(CCN(CC(=O)[O-])CC(=O)O)CC(=O)[O-].[Na+].[Na+].[Na+]", "note": "[EDTA, Na3]", "Physical state in vehicle": "Not dissolved"}
{"compound": "O.O.O=C([O-])CN(CCN(CC(=O)[O-])CC(=O)[O-])CC(=O)[O-].[Na+].[Na+].[Na+].[Na+]", "note": "[EDTA, Na4, 2H2O]", "Physical state in vehicle": "Not dissolved"}
{"compound": "O=C(O)CN(CCN(CC(=O)O)CC(=O)O)CC(=O)O", "note": "[Ethylene di-amine tetra acetic acid]", "Physical state in vehicle": "Not dissolved"}
{"compound": "O=C(O)C(=O)O", "note": "[Oxalic acid, 2H2O]", "Physical state in vehicle": "Dissolved"}
{"compound": "O=C([O-])C(=O)[O-].[Ca+2]", "note": "[Oxalic acid, Ca, xH2O]", "Physical state in vehicle": "Not dissolved"}
{"compound": "N.N.O=C(O)C(O)C(O)C(=O)O", "note": "(stereo not shown) [Tartaric acid, (NH4)2]", "Physical state in vehicle": "Not dissolved"}
{"compound": "O.O=C([O-])C(O)C(O)C(=O)[O-].O=C([O-])C(O)C(O)C(=O)[O-].[K+].[K+].[K+].[K+]", "note": "(stereo not shown) [Tartaric acid, K2, ½H2O]", "Physical state in vehicle": "Not dissolved"}
{"compound": "O=C([O-])C(O)C(O)C(=O)O.[K+]", "note": "(stereo not shown) [Tartaric acid, K]", "Physical state in vehicle": "Not dissolved"}
{"compound": "O=C(O)C(O)C(O)C(=O)O", "note": "(stereo not shown) [Tartaric acid]", "Physical state in vehicle": "Dissolved"}
{"compound": "O.O=C([O-])CN(CCN(CC(=O)[O-])CC(=O)[O-])CCN(CC(=O)[O-])CC(=O)[O-].[Ca+2].[Na+].[Na+].[Na+]", "note": "[Triethyleneamine pentaacetic acid, Ca, Na3, H2O]", "Physical state in vehicle": "Not dissolved"}
{"compound": "EDTA, NH4, H2O", "Physical state in vehicle": "Not dissolved"}
{"experiment": "Ability of stabilizing agents to dissolve in the melted PEG/Poloxamer vehicle", "assay_type": "physicochemical", "conditions": "0.5% w/w of substance mixed with PEG/Poloxamer at 80° C.; listed as citric acid"}
{"compound": "O=C(O)CC(O)(CC(=O)O)C(=O)O", "note": "[Citric acid, H2O]", "Physical state in vehicle": "dissolved"}
{"experiment": "Ability of stabilizing agents to dissolve in the melted PEG/Poloxamer vehicle", "assay_type": "physicochemical", "conditions": "0.5% w/w of substance mixed with PEG/Poloxamer at 80° C.; listed as oxalic acid"}
{"compound": "O=C(O)C(=O)O", "note": "[Oxalic acid, 2H2O]", "Physical state in vehicle": "dissolved"}
{"experiment": "Ability of stabilizing agents to dissolve in the melted PEG/Poloxamer vehicle", "assay_type": "physicochemical", "conditions": "0.5% w/w of substance mixed with PEG/Poloxamer at 80° C.; listed as tartaric acid"}
{"compound": "O=C(O)C(O)C(O)C(=O)O", "note": "(stereo not shown) [Tartaric acid]", "Physical state in vehicle": "dissolved"}
